This note sets out measurements from patent US12195490B2, “STRAD-binding agents and uses thereof” (The Regents of the University of California, priority 2020, dated 2025).

Counter-ions that a name gives are not always drawn.

The experiment deals with ACHN cell line. Put plainly: drug screen of the SelleckChem kinase inhibitor library with and without 5 uM SU-329, Cell-Titer Glo after 5 days. The class given is cell-based. The conditions noted are these: kinase inhibitor at 200 nM with and without 5 uM SU329; ACHN cell line; 5 days; Cell-Titer Glo.
For `CS(=O)(=O)N1CCc2c(-c3cnc(N)nc3)nc(N3CCOCC3)nc21` [CH5132799], the log2fc is given as −1.044.
`N#Cc1ccc2[nH]c(O)c(-c3ccc(CN4CCOCC4)cn3)c2c1` [AZD1080] displayed a log2fc of 1.953.
For the compound `Oc1ccc(Nc2nc(-c3ccc(Cl)cc3)cs2)cc1` [SKI II], the log2fc is given as 0.06564.
To `CC1=C(C(=O)Nc2cc3cn[nH]c3cc2F)C(c2ccc(C(F)(F)F)cc2)CC(=O)N1` (stereo not shown) [GSK429286A] belongs −0.03939; to `CN(C[C@@H]1COCCO1)S(=O)(=O)Nc1ccc2ccc3ncc(-c4cnn(C)c4)cc3c(=O)c2c1` [MK-2461], 0.09192; to `CC[C@H](Nc1ncnc2[nH]cnc12)c1nc2cccc(F)c2c(=O)n1-c1ccccc1` [Idelalisib (CAL-101, GS-1101)], 0.09838.
To `Cc1cnc(-c2cnc(NCCNc3ccc(C#N)cn3)nc2-c2ccc(Cl)cc2Cl)[nH]1` [CHIR-99021 (CT99021)] belongs 1.316.
`O=c1ncn2nc(Sc3ccc(F)cc3F)ccc2c1-c1c(Cl)cccc1Cl` [VX-745] gave a log2fc of −0.2953.
For `COc1ccc(-c2nc(N3CCOCC3)c3sc(CN(C)c4ncc(C(=O)NO)cn4)cc3n2)cn1` [CUDC-907] the value was 0.5895; for `COc1cc(Nc2ncc(F)c(Nc3ccc4c(n3)NC(=O)C(C)(C)O4)n2)cc(OC)c1OC` [R406 (free base)], 0.8334; for `CNc1nc(Nc2cnn([C@H]3CCN(C4COC4)C[C@@H]3F)c2Cl)ncc1C(F)(F)F` [GNE-9605], 0.4092.
`COc1cc2nccc(Oc3ccc(NC(=O)C4(C(=O)Nc5ccc(F)cc5)CC4)cc3)c2cc1OC` [Cabozantinib (XL184, BMS-907351)]: the log2fc worked out at 0.001197.
With `O=C1NC(=O)C(c2cnc3ccccn23)=C1c1cn2c3c(cc(F)cc13)CN(C(=O)N1CCCCC1)CC2` [LY2090314], the log2fc came to 1.91.
The compound `O=C(Nc1ccc(OC(F)(F)F)cc1)c1sccc1NCc1ccnc2ccccc12` [OSI-930] had a log2fc of −0.2273.
For `O=C(NCc1cccc(O)c1)Nc1nc(-c2ccncc2)cs1` [RKI-1447] the value was −0.8453; for `COc1ccc(S(=O)(=O)N(C(C)=O)c2ccccc2/C=C/c2cc[n+]([O-])cc2)cc1` [HMN-214], 0.2477.
To `CN1CCCN(C(=O)c2cccc(-c3ccc(/C=C4/C(=O)Nc5ccc(Cl)cc54)o3)c2)CC1.Cl` [CX-6258 HCl] belongs −0.355; to `N[C@@H]1CCCN(c2c(/C=C3\SC(=O)NC3=O)cccc2-c2ccccc2)C1` [AZD1208], −0.4967; to `CCN(CC)CCNC(=O)c1c(C)[nH]c(/C=C2\C(=O)Nc3ccc(F)cc32)c1C` [Sunitinib Malate, sunitinib, reference compound], −0.1249.
For `CNC(=O)c1ccccc1Nc1nc(Nc2ccc(N3CCOCC3)cc2OC)ncc1Cl` [TAE226 (NVP-TAE226)], the log2fc is reported as −0.08897.
For `Nc1cccc(-c2cc3c(Oc4cccc(O)c4)ncnc3[nH]2)c1` [TWS119] the value was 0.52; for `O=C(O)[C@]1(Cc2cccc(Nc3nccs3)n2)CC[C@@H](Oc2cccc(Cl)c2F)CC1` [MK-5108 (VX-689)], −0.2429.
`Cc1cc(Nc2cc(N3CCN(C)CC3)nc(Sc3ccc(NC(=O)C4CC4)cc3)n2)n[nH]1` [Tozasertib (VX-680, MK-0457)] displayed a log2fc of 0.9265.
For the compound `COc1cc2c(Oc3ccc4[nH]c(C)cc4c3F)ncnc2cc1OCCCN1CCCC1` [Cediranib (AZD2171)], the log2fc was determined as 0.01224.
On to `Cc1[nH]c(/C=C2\C(=O)Nc3ccc(S(=O)(=O)Cc4c(Cl)cccc4Cl)cc32)c(C)c1C(=O)N1CCC[C@@H]1CN1CCCC1` [PHA-665752], for which the log2fc was 0.1781.
To `C=CC(=O)Nc1cc(Nc2nccc(-c3cn(C)c4ccccc34)n2)c(OC)cc1N(C)CCN(C)C` [Osimertinib (AZD9291)] belongs −0.01286; to `COc1cc2c(Oc3ccc(NC(=O)C4(C(=O)Nc5ccc(F)cc5)CC4)cc3F)ccnc2cc1OCCCN1CCOCC1` [Foretinib (GSK1363089)], −0.1359.
The compound `C=CC(=O)Nc1cccc(Oc2nc(Nc3ccc(N4CCN(C)CC4)cc3)ncc2Cl)c1` [WZ3146, reference compound] had a log2fc of 0.05459.
For `CCN1CCN(C(=O)Cc2ccc(Nc3ncc(F)c(Nc4ccc(C(=O)Nc5ccccc5Cl)cc4)n3)cc2)CC1` [Aurora A Inhibitor I] the value was −0.1962.
Regarding `N#CC[C@H](C1CCCC1)n1cc(-c2ncnc3[nH]ccc23)cn1` [Ruxolitinib (INCB018424)], the log2fc is on record as −0.1253.
On to `C=CC(=O)Nc1cccc(Nc2nc(Nc3ccc(Oc4ccnc(C(=O)NC)c4)cc3)ncc2F)c1` [CNX-774], for which the log2fc is −0.2519.
To `Cc1cc(NC(=O)c2cccc(NC(=O)/C=C/CN(C)C)c2)ccc1Nc1nccc(-c2cccnc2)n1` [JNK-IN-8] belongs 0.5696; to `CNC(=O)c1nn(C)c2c1C(C)(C)Cc1cnc(Nc3ccc(N4CCN(C)CC4)cc3)nc1-2` [Milciclib (PHA-848125)], 0.9986; to `CCOc1cc(N2CCC(O)CC2)ccc1Nc1ncc2c(n1)N(C)c1ccccc1C(=O)N2C` [XMD8-92], −0.09901.
In turn, `CNC(=O)c1cc(Oc2ccc(NC(=O)Nc3ccc(Cl)c(C(F)(F)F)c3)cc2)ccn1` [Sorafenib Tosylate] gave a log2fc of −0.2533.
Take `C[C@@H]1CN(CC(=O)Nc2ccc3c(c2)Cc2cccc(-c4cc(=O)cc(N5CCOCC5)o4)c2S3)C[C@H](C)O1` [KU-60019]: the log2fc amounted to 0.886.
Turning to `O=c1sn(-c2cccc3ccccc23)c(=O)n1Cc1ccccc1` [Tideglusib], the log2fc is −0.007073.
For `CNCc1ccc(-c2cc(-c3nc(-c4ccc(S(=O)(=O)C(C)C)cc4)cnc3N)on2)cc1` [VE-822] the value was 0.3083; for `CCn1c(=O)c(-c2ccc(-c3cncs3)cc2Cl)cc2cnc(Nc3ccc(N4CCN(C)CC4)cc3)nc21` [FRAX597], −0.0718.
To `COc1ccc(-c2cc3c(C)nc(N)nc3n([C@H]3CC[C@H](OCCO)CC3)c2=O)cn1` [PF-04691502] belongs −0.5101; to `O=C1NC(=O)/C(=C/c2ccc3c(c2)OC(F)(F)O3)S1` [AS-604850], 0.4876; to `COc1ccccc1-c1cc(Nc2cccc(CS(N)(=O)=O)c2)ncn1` [LDC000067], −0.05049.
For `COc1cc2ncnc(Nc3ccc(Cl)cc3F)c2cc1OC` [ZM 306416] the value was 0.5807; for `C=CC(=O)Nc1cccc(Nc2nc(Nc3ccc(OCCOC)cc3)ncc2F)c1` [CC-292 (AVL-292)], −0.2142; for `CNC(=O)c1cccc(-c2ccc3c(N4CCOC[C@@H]4C)nc(N4CCOC[C@@H]4C)nc3n2)c1` [Vistusertib (AZD2014)], −0.8127.
Take `CO[C@H]1C[C@@H]2CC[C@@H](C)[C@@](O)(O2)C(=O)C(=O)N2CCCC[C@H]2C(=O)O[C@H]([C@H](C)C[C@@H]2CC[C@@H](O)[C@H](OC)C2)CC(=O)[C@H](C)/C=C(\C)[C@@H](O)[C@@H](OC)C(=O)[C@H](C)C[C@H](C)/C=C/C=C/C=C/1C` [Rapamycin (Sirolimus)]: the log2fc is recorded as −1.552.
For `C#Cc1cccc(Nc2ncnc3cc(OC)c(OCCCCCCC(=O)NO)cc23)c1` [CUDC-101, reference compound] the value was 0.1269.
For S-Ruxolitinib (INCB018424) the value was −0.1855.
`CCOc1ccn(-c2ccc(F)cc2)c(=O)c1C(=O)Nc1ccc(Oc2ccnc(N)c2Cl)c(F)c1` [BMS-777607] displayed a log2fc of −0.5095.
As for `COc1cc(OC)c(/C=C/S(=O)(=O)Cc2ccc(OC)c(NCC(=O)O)c2)c(OC)c1` [Rigosertib (ON-01910)], the log2fc is listed as 0.6643.
For `COc1cc(N2CCC(N(C)C)CC2)ccc1Nc1ncc(Cl)c(Nc2ccccc2P(C)(C)=O)n1` [ALK-IN-1] the value was −0.4692; for `CNc1nc(-c2ccc3c(N)n[nH]c3c2)cc(N2C[C@@H](C(=O)NC3CCCCC3)CC[C@H]2C)n1` [GSK2334470], −1.111; for `CNC(=O)c1cc(Oc2ccc(NC(=O)Nc3cc(C(C)(C)C)nn3-c3ccc4ncccc4c3)c(F)c2)ccn1` [Rebastinib (DCC-2036)], 0.007715.
To `COc1ccc(CNC(=O)Nc2ncc([N+](=O)[O-])s2)cc1` [AR-A014418] belongs 0.1293.
To `CCc1cnn2c(NCc3ccc[n+]([O-])c3)cc(N3CCCC[C@H]3CCO)nc12` [Dinaciclib (SCH727965)] belongs 1.402; to `CCOc1cc2ncc(C#N)c(Nc3ccc(F)c(Cl)c3)c2cc1NC(=O)/C=C/CN(C)C` [Pelitinib (EKB-569)], 0.96.
For the compound `C[C@H]1[C@H](C)CC[C@]2(C(=O)O)CC[C@]3(C)C(=CC[C@@H]4[C@@]5(C)C[C@@H](O)[C@H](O)[C@@](C)(CO)[C@@H]5CC[C@]43C)[C@H]12` [Asiatic Acid], the log2fc was found to be 0.1505.
To `Cc1csc(-c2nnc(Nc3ccc(Oc4ncccc4-c4ccnc(N)n4)cc3)c3ccccc23)c1` [AMG-900] belongs 0.883.
`CCn1c2ccccc2c2cc(Nc3ccnc(NCCCN4CCOCC4)n3)ccc21` [EHop-016] returned a log2fc of 0.1156.
The compound `Cc1cc(CS(=O)(=O)c2ccccc2)cc(OCc2ccc(CN3CCC[C@@H]3CO)cc2)c1` [PF-543] showed a log2fc of 0.8598.
As to `NC(=O)Nc1sc(-c2ccc(F)cc2)cc1C(N)=O` [TPCA-1], the log2fc is recorded as −0.08928.
The compound `CS(=O)(=O)c1cccc(CNc2nc(Nc3ccc4c(c3)CCC(=O)N4)ncc2C(F)(F)F)c1` [PF-573228] had a log2fc of 0.4325.
`O=C1NC(=O)C(c2ccccc2[N+](=O)[O-])=C1Nc1ccc(O)c(Cl)c1` [SB415286] returned a log2fc of 0.2736.
Turning to `COCCNCc1ccc(-c2cc3nccc(Oc4ccc(NC(=S)NC(=O)Cc5ccc(F)cc5)cc4F)c3s2)nc1` [MGCD-265], the log2fc amounted to 0.4311.
